The nature of one data set: Mouse pharmacokinetics. It is filed as in vivo. Conditions: plasma, male CD-1 mice; for C0: C0 by extrapolation. The procedure:
Mouse pharmacokinetic data were generated as follows. Compounds were administered intravenously (IV) as a single dose via tail vein or orally (PO) as a single dose via gastric gavage to male CD-1 mice with weights between 18 and 25 g. Nominal doses were 1 mg/kg and 5 mg/kg for IV and PO administration, respectively. The doses for IV were formulated by dissolving the test compound in a mixture (v/v/v) of 5% N,N-dimethylacetamide (DMA), 15% Kolliphor® (Solutol®) HS15, and 80% sterile water at a dose concentration of 0.25 mg/mL. Doses for PO were formulated by dissolving the test compound in a mixture (v/v) of 90% Kolliphor® (Solutol®) HS15 and 10% pure ethanol at a dose concentration of 0.25 mg/mL.
Animals were housed in standard holding cages with food and water available ad libitum except for those used for PO dosing, which were fasted overnight prior to dosing. Prior to dosing and at each time point following dosing (5 min (IV only), 15 min, 30 min, 60 min, 120 min, 4 h, 8 h, 12 h, and 24 h), two animals were sacrificed and blood samples were taken in triplicate via cardiac puncture. Plasma was obtained by centrifuge and stored frozen until analyzed by LC-MS/MS using an AB Sciex™ QTrap® 5500 coupled to a Shimadzu Nexera X2 fitted with a Luna® Omega 1.6 μm Polar C18 100 Å, 50×2.1 mm, acquired from Phenomenex®. Samples were compared against a standard curve of the test compound at concentrations ranging from 10,000 to 0.3 ng/mL.
Pharmacokinetic parameters are calculated from mean concentration values using a non-compartmental analysis as described below and as apparent to those of ordinary skill in the art. Concentration at time zero (C0) for the IV was established by the extrapolation of log-linear regression using equal weighting on the first three sample time points. Area under the curve (AUC) values were calculated using linear trapezoidal integration.

Data set [1] in a line: Rat liver microsome stability. Type of data set: in vitro ADME. Conditions: Sprague-Dawley, pH 7.4; SD rat liver microsomes 0.5 mg/mL, NADPH, 37° C.; lower measurable bound 5. How it is done: (§1) In a 96-well Nunc™ plate, 1.5 μL of a 200 μM solution of the test compound in DMSO were placed in a well. This plate, the “Reaction Plate,” was then warmed to 37° C. in an oven. In a second 96-well Nunc™ plate, the “Quench Plate,” six wells were filled with 180 μL of an internal standard quench solution composed of 100 nM diclofenac in acetonitrile. These six wells correspond to the six time points for data collection: 0, 0.5, 5, 15, 30, and 60 minutes. “Assay Buffer” was prepared by combining 6.96 g potassium phosphate, dibasic, 1.36 g potassium phosphate, monobasic, and 0.30 g of magnesium chloride hexahydrate, then diluting to a final concentration of 500 mL in water and adjusting to pH 7.4, as needed. Assay Buffer was warmed to 37° C., and 12 mL were added to a 10-mg vial of NADPH. Then 300 μL of a 20 mg/mL liver microsome suspension were added to yield a 0.5 mg/mL liver microsome suspension. 300 μL of this liver microsome suspension was then added to the test compound solution in the Reaction Plate and mixed thoroughly with a pipette tip. At each time point, 30 μL of this mixture was transferred to the corresponding well of the Quench Plate. In between time points, the Reaction Plate was kept sealed and warmed in an incubator at 37° C. When the last time point had been completed, the quench plate was centrifuged at 4° C. at 1000×g for 10 minutes. Afterwards, 50 μL of the supernatant of each well was transferred to unique, corresponding wells of a 96-well Costar® plate, the “Analysis Plate,” filled with 150 μL of 50:50 acetonitrile:HyClone™ water. The Analysis Plate was then sealed with a pre-slit plate seal before analysis via an appropriate LCMS method with a 10 μL injection. The abstracted AUC data were then automatically plotted to calculate intrinsic clearance in μL/min/mg. This experiment was run alongside a positive and negative control. Due to the parameters of this procedure, one of skill in the art will appreciate that this assay has a lower measurable bound of 5 μL/min/mg; therefore, certain compounds have their clearances labeled as ≤5 μL/min/mg.

Data set [2] in a line: Mouse liver microsome stability. Conditions: pH 7.4; CD-1 mouse liver microsomes 0.5 mg/mL, NADPH, 37° C.; lower measurable bound 5. It is filed as in vitro ADME, mouse (CD-1). How it is done:
as §1
For orientation: Microsomes from liver hold many membrane-bound enzymes, among them those of drug oxidation.

Another data set in a line: Mouse plasma stability. It is filed as in vitro ADME, mouse (CD-1). Conditions: CD-1 mouse plasma, 37° C., time points to 160 min; read-out: Mouse Plasma Stability t1/2. How it is done: Alongside a positive control of propantheline bromide, 8 μL of a 1 mM solution of each test compound in DMSO was placed in two wells of a Nunc™ 96-well plate called the “dilution plate.” To one well, 392 μL of HyClone™ water was added and mixed by a pipette. To the other well, 392 μL of mouse or rat plasma stabilized with sodium citrate purchased from Innovative Research was added and mixed by a pipette. The dilution plate was kept covered to reduce solvent evaporation and heated in an incubator at 37° C. At each of the time points enumerated below, the plate was removed from the incubator and 50 μL of the test compound/water or test compound/plasma solutions were transferred to a unique, corresponding well in a “quench plate” (96-well Costar® plate) that contains 150 μL of a quench solution that contains an internal standard (20 uM diclofenac in acetonitrile). The dilution plate was then returned to the incubator. This process was performed at 0, 5, 10, 20, 40, 80, and 160 minutes from the original mixing of the test compounds with the water or plasma in the dilution plate. After the quenching of the 160-minute time point, the quench plate was then centrifuged at 4° C. at 1000×g for 10 minutes. 100 μL of the supernatant of each well were then transferred to corresponding unique wells in a “read plate” (96-well Costar® plate) that were filled with 100 μL of HyClone™ water. The plate was then sealed and analyzed via UHPLC using a 10-μL sample injection through a Phenomenex® Kinetex column pre-equilibrated with the loading buffer (95:5 water:acetonitrile). The parameters were as follows. Mobile Phase A: water, 0.025% formic acid. Mobile Phase B: acetonitrile, 0.025% formic acid. Flow Rate: 0.5 mL/min. […] Half-life (t1/2) times were computed by using a chi-square analysis to fit the peak areas to an exponential decay model for compound concentration as a function of time.

Setting [3] is: IV single dose 1 mg/kg, read-out: IV AUC.
Setting [4] is: PO single dose 5 mg/kg, read-out: PO AUC.

Read-outs that look alike come from different tables or passages of the source.

As to `CC(C)(C)C(=O)n1nc(-c2cccn(CCC(=O)O)c2=O)cc1NCc1ccc(Cl)s1` [Compound 1, 3-[3-(5-{[(5-chlorothiophen-2-yl)methyl]amino}-1-(2,2-dimethylpropanoyl)-1H-pyrazol-3-yl)-2-oxo-1,2-dihydropyridin-1-yl]propanoic acid], the C0 in the data set “Mouse pharmacokinetics” (IV single dose 1 mg/kg) was 6800 ng/mL. Also, the AUC in the data set “Mouse pharmacokinetics” (setting [3]) amounted to 8200 ng·h/mL; in “Mouse pharmacokinetics” (setting [4]) it was 31000 ng·h/mL. In “Mouse pharmacokinetics” (PO single dose 5 mg/kg), this compound came in with a Cmax of 3600 ng/mL. The microsomal CLint at 1 µM in data set [1] was no more than 5 µL/min/mg; in data set [2], 5 to 11 µL/min/mg. Also, the half-life at 20 µM in “Mouse plasma stability” is no less than 3 h.

Take `O=C(O)CCn1cccc(-c2cc(NCc3ccc(Cl)s3)[nH]n2)c1=O` [Compound 2, 3-[3-(5-{[(5-chlorothiophen-2-yl)methyl]amino}-1H-pyrazol-3-yl)-2-oxo-1,2-dihydropyridin-1-yl]propanoic acid]: the C0 in the data set “Mouse pharmacokinetics” (IV single dose 1 mg/kg) is 6300 ng/mL. For the same compound, the AUC was 850 ng·h/mL in “Mouse pharmacokinetics” (setting [3]) and 1300 ng·h/mL in the data set “Mouse pharmacokinetics” (setting [4]). The compound further yielded a Cmax in “Mouse pharmacokinetics” (PO single dose 5 mg/kg) of 700 ng/mL. The microsomal CLint at 1 µM in data set [1] and in data set [2] was no more than 5 µL/min/mg in each case. Besides, the half-life at 20 µM in the data set “Mouse plasma stability” was no less than 5 h.

Consider `O=C(O)Cn1cccc(-c2cc(NCc3ccc(Cl)s3)[nH]n2)c1=O` [Compound 3, 2-[3-(5-{[(5-chlorothiophen-2-yl)methyl]amino}-1H-pyrazol-3-yl)-2-oxo-1,2-dihydropyridin-1-yl]acetic acid], for which the C0 in the data set “Mouse pharmacokinetics” (IV single dose 1 mg/kg) was 7200 ng/mL. For the same compound, the area under the curve (AUC) in “Mouse pharmacokinetics” (setting [3]) was found to be 2200 ng·h/mL. Besides, the microsomal CLint at 1 µM in data set [1] and in data set [2] was no more than 5 µL/min/mg in each case. In addition, the half-life at 20 µM in “Mouse plasma stability” is no less than 5 h.

`CC(C)(C)C(=O)n1nc(-c2cccn(CC(=O)O)c2=O)cc1NCc1ccc(Cl)s1` [Compound 4, 2-[3-(5-{[(5-chlorothiophen-2-yl)methyl]amino}-1-(2,2-dimethylpropanoyl)-1H-pyrazol-3-yl)-2-oxo-1,2-dihydropyridin-1-yl]acetic acid]: the C0 in “Mouse pharmacokinetics” (IV single dose 1 mg/kg) is 9500 ng/mL. In addition, the AUC in the data set “Mouse pharmacokinetics” (setting [3]) worked out at 6200 ng·h/mL; in “Mouse pharmacokinetics” (setting [4]), 15000 ng·h/mL. The same compound showed a Cmax in the data set “Mouse pharmacokinetics” (PO single dose 5 mg/kg) of 1500 ng/mL. Also, the microsomal CLint at 1 µM in data set [1] and in data set [2] was no more than 5 µL/min/mg in each case. Moreover, the half-life at 20 µM in “Mouse plasma stability” was no less than 5 h.

Regarding `CC(C)(C)C(=O)n1nc(-c2cccn(CCCC(=O)O)c2=O)cc1NCc1ccc(Cl)s1` [Compound 5, 4-[3-(5-{[(5-chlorothiophen-2-yl)methyl]amino}-1-(2,2-dimethylpropanoyl)-1H-pyrazol-3-yl)-2-oxo-1,2-dihydropyridin-1-yl]butanoic acid], the microsomal CLint at 1 µM in data set [1] was 10 µL/min/mg; in data set [2], 29 µL/min/mg. For the same compound, the half-life at 20 µM in “Mouse plasma stability” amounted to 3.83 h.

Consider `CC(C)(C)C(=O)n1nc(-c2cccn(CCC(N)=O)c2=O)cc1NCc1ccc(Cl)s1` [Compound 8, 3-[3-(5-{[(5-chlorothiophen-2-yl)methyl]amino}-1-(2,2-dimethylpropanoyl)-1H-pyrazol-3-yl)-2-oxo-1,2-dihydropyridin-1-yl]propanamide], for which, in the data set “Mouse pharmacokinetics” (IV single dose 1 mg/kg), the C0 was 1700 ng/mL. The AUC in “Mouse pharmacokinetics” (setting [3]) turned out to be 530 ng·h/mL. Moreover, in data set [2], the microsomal CLint at 1 µM came to 100 µL/min/mg. Besides, the half-life at 20 µM in the data set “Mouse plasma stability” is 2.67 h.

Turning to `CC(C)(N)Cn1cccc(-c2cc(NCc3ccc(Cl)s3)n(C(=O)c3ccoc3)n2)c1=O` [Compound 9, 1-(2-amino-2-methylpropyl)-3-(5-{[(5-chlorothiophen-2-yl)methyl]amino}-1-(furan-3-carbonyl)-1H-pyrazol-3-yl)-1,2-dihydropyridin-2-one], the microsomal CLint at 1 µM in data set [1] is no more than 5 µL/min/mg; in data set [2], 11 µL/min/mg. Further, the half-life at 20 µM in the data set “Mouse plasma stability” stood at 2.67 h.

For the compound `CCC(C)(C)C(=O)n1nc(-c2cccn(CCC(=O)O)c2=O)cc1NCc1ccc(Cl)s1` [Compound 11, 3-[3-(5-{[(5-chlorothiophen-2-yl)methyl]amino}-1-(2,2-dimethylbutanoyl)-1H-pyrazol-3-yl)-2-oxo-1,2-dihydropyridin-1-yl]propanoic acid], in the data set “Mouse pharmacokinetics” (IV single dose 1 mg/kg), the C0 was 7400 ng/mL. The AUC in the data set “Mouse pharmacokinetics” (setting [3]) was found to be 3900 ng·h/mL. Moreover, the results for the microsomal CLint at 1 µM in data set [1] and in data set [2] were 14 µL/min/mg and 31 µL/min/mg, respectively. The half-life at 20 µM in “Mouse plasma stability” was no less than 5 h.

`O=C(O)CCn1cccc(-c2cc(NCc3ccc(Cl)s3)n(C(=O)c3ccoc3)n2)c1=O` [Compound 12, 3-[3-(5-{[(5-chlorothiophen-2-yl)methyl]amino}-1-(furan-3-carbonyl)-1H-pyrazol-3-yl)-2-oxo-1,2-dihydropyridin-1-yl]propanoic acid]: the C0 in the data set “Mouse pharmacokinetics” (IV single dose 1 mg/kg) was 4200 ng/mL. Further, the area under the curve (AUC) in the data set “Mouse pharmacokinetics” (setting [3]) was 1000 ng·h/mL. The microsomal CLint at 1 µM in data set [2] is no more than 5 µL/min/mg. The half-life at 20 µM in the data set “Mouse plasma stability” worked out at 3.67 h.

Broadly, the AUC is concentration integrated over time. In general, Cmax refers to the peak of the concentration-time curve. A word on the microsomal CLint: it is the capacity of the preparation to metabolise the compound, expressed as a volume cleared per time. A lower microsomal CLint goes with slow turnover.

Source of the values: patent US11865110B2, “Thrombin inhibitors, formulations, and uses thereof” (VERSEON INTERNATIONAL CORPORATION, priority 2018, dated 2024).
